Calls of active or inactive are those of the source. How the calls were made is not given here.
Tested on: rodent carcinogenicity bioassays, tumor incidence
Test: CCRIS carcinogenicity studies
Method in brief: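 NCI-built, expert-reviewed records of carcinogenicity and related test outcomes (mutagenicity, tumor promotion/inhibition) compiled from published and report sources, historical span 1985-2011, not updated.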

COc1cccc2c1cc([N+](=O)[O-])c1c(C(=O)O)cc3c(c12)OCO3
carcinogen call (Species: RAT, Strain/Sex: SPRAGUE-DAWLEY/FEMALE, Route: ORAL, GAVAGE, Dose: 50 MG/KG BW/D FOR 3 D (STUDY DURATION: 6 MO), Tumor Site: Type of Lesion: KIDNEY: TUMORS, 29% (THERE WERE 3 MESENCHYMAL TUMORS AND 1 RENAL ONCOCYTOMA IN 14 ANIMALS)): active; positive

COc1c(N2C[C@@H]3CCCN[C@@H]3C2)c(F)cc2c(=O)c(C(=O)O)cn(C3CC3)c12
carcinogen call (Species: RAT, Strain/Sex: WISTAR/MALE, FEMALE, Route: GAVAGE, Dose: 0, 500 MG/KG BW/D FOR 38 WK (STUDY DURATION: 38 WK)): inactive; negative

CCn1cc(C(=O)O)c(=O)c2ccc(C)nc21
carcinogen call (Species: MOUSE, Strain/Sex: B6C3F1/FEMALE, Route: ORAL, Dose: 0, 2000, 4000 PPM IN FEED FOR 103 WK (STUDY DURATION: 104 WK), Dose: 0, 2000, 4000 PPM IN FEED FOR 103 WK (STUDY DURATION: 104 WK)): inactive; negative | carcinogen call (Species: MOUSE, Strain/Sex: B6C3F1/MALE, Route: ORAL, Dose: 0, 2000, 4000 PPM IN FEED FOR 103 WK (STUDY DURATION: 104 WK), Dose: 0, 2000, 4000 PPM IN FEED FOR 103 WK (STUDY DURATION: 104 WK), Tumor Site: Type of Lesion: INTEGUMENTARY SYSTEM (SUBCUTANEOUS TISSUE): FIBROMA OR FIBROSARCOMA): equivocal | carcinogen call (Species: RAT, Strain/Sex: F344/FEMALE, Route: ORAL, Dose: 0, 2000, 4000 PPM IN FEED FOR 103 WK (STUDY DURATION: 104 WK), Dose: 0, 2000, 4000 PPM IN FEED FOR 103 WK (STUDY DURATION: 104 WK), Tumor Site: Type of Lesion: CLITORAL GLAND: ADENOMA, ADENOMA OR PAPILLOMA, ADENOMA OR PAPILLOMA OR CARCINOMA OR PAPILLARY CARCINOMA): active; positive | carcinogen call (Species: RAT, Strain/Sex: F344/MALE, Route: ORAL, Dose: 0, 2000, 4000 PPM IN FEED FOR 103 WK (STUDY DURATION: 104 WK), Dose: 0, 2000, 4000 PPM IN FEED FOR 103 WK (STUDY DURATION: 104 WK), Tumor Site: Type of Lesion: PREPUTIAL GLAND: ADENOMA, ADENOMA OR PAPILLOMA, CARCINOMA): active; positive

[Ni]#[Sb]
carcinogen call (Species: RAT, Strain/Sex: F344/MALE, Route: INTRAMUSCULAR, Tumor Site: Type of Lesion: INJECTION SITE: SARCOMA): active; positive

CCNc1nc(Cl)nc(NC(C)(C)C#N)n1
carcinogen call (Species: Mouse, Strain/Sex: CD/Female (50 per group; 100 per group for controls), Route: Oral, Dose: 0, 10, 25, 1,000 ppm of 98% pure cyanazine in feed for two yr, Dose: 0, 10, 25, 1,000 ppm of 98% pure cyanazine in feed for two yr): inactive; negative | carcinogen call (Species: Mouse, Strain/Sex: CD/Male (50 per group; 100 per group for controls), Route: Oral, Dose: 0, 10, 25, 1,000 ppm of 98% pure cyanazine in feed for two yr, Dose: 0, 10, 25, 1,000 ppm of 98% pure cyanazine in feed for two yr): inactive; negative | carcinogen call (Species: RAT, Strain/Sex: CRL:CD BR/FEMALE, Route: ORAL, Dose: 0, 1, 5, 25, 50 PPM FOR 104 WK (STUDY DURATION: 104 WK), Dose: 0, 1, 5, 25, 50 PPM FOR 104 WK (STUDY DURATION: 104 WK)): inactive; negative

ClCc1cccnc1
carcinogen call (Species: MOUSE, Strain/Sex: B6C3F1/FEMALE, Route: GAVAGE, Dose: 0, 100, 200 MG/KG, Dose: 0, 100, 200 MG/KG, Tumor Site: Type of Lesion: STOMACH: SQUAMOUS CELL PAPILLOMA, CARCINOMA): active; positive | carcinogen call (Species: MOUSE, Strain/Sex: B6C3F1/MALE, Route: GAVAGE, Dose: 0, 100, 200 MG/KG, Dose: 0, 100, 200 MG/KG, Tumor Site: Type of Lesion: STOMACH: SQUAMOUS CELL PAPILLOMA, CARCINOMA): active; positive | carcinogen call (Species: RAT, Strain/Sex: F344/FEMALE, Route: GAVAGE, Dose: 0, 75, 150 MG/KG FOR 83 WK (STUDY DURATION: 104 WK), Dose: 0, 75, 150 MG/KG FOR 83 WK (STUDY DURATION: 104 WK), Tumor Site: Type of Lesion: FORESTOMACH: SQUAMOUS CELL PAPILLOMA): equivocal | carcinogen call (Species: RAT, Strain/Sex: F344/MALE, Route: GAVAGE, Dose: 0, 75, 150 MG/KG, Dose: 0, 75, 150 MG/KG, Tumor Site: Type of Lesion: STOMACH: SQUAMOUS CELL PAPILLOMA OR CARCINOMA): active; positive

CC(=O)CN(C)N=O
carcinogen call (Species: HAMSTER, Strain/Sex: SYRIAN/FEMALE, Route: GAVAGE, Dose: 0, 0.5 MG IN 0.1 ML WATER 2/WK FOR 22 WK FOR A TOTAL DOSE OF 22 MG (STUDY DURATION: 45 WK), Tumor Site: Type of Lesion: LIVER: HEMANGIOSARCOMA, CHOLANGIOCELLULAR CARCINOMA, CHOLANGIOCELLULAR ADENOMA, NASAL MUCOSA: CARCINOMA): active; positive | carcinogen call (Species: HAMSTER, Strain/Sex: SYRIAN/FEMALE, Route: GAVAGE, Dose: 0, 1 MG IN 0.1 ML WATER 2/WK FOR 11 WK FOR A TOTAL DOSE OF 22 MG (STUDY DURATION: 45 WK), Tumor Site: Type of Lesion: LIVER: TUMOR, NASAL MUCOSA: CARCINOMA): active; positive | carcinogen call (Species: HAMSTER, Strain/Sex: SYRIAN/FEMALE, Route: GAVAGE, Dose: 0, 2 MG IN 0.2 ML WATER 1/WK FOR 14 WK FOR A TOTAL DOSE OF 28 MG (STUDY DURATION: 17 WK), Tumor Site: Type of Lesion: LIVER: HEPATOCELLULAR ADENOMA, CHOLANGIOCELLULAR CARCINOMA OR ADENOMA, NASAL MUCOSA: CARCINOMA OR ADENOMA): active; positive | carcinogen call (Species: RAT, Strain/Sex: F344/FEMALE, Route: GAVAGE, Dose: 0, 4 MG/WK FOR A TOTAL DOSE OF 0.5 MMOL (STUDY DURATION: 40 WK), Tumor Site: Type of Lesion: ESOPHAGUS: TUMOR): active; positive | carcinogen call (Species: RAT, Strain/Sex: F344/MALE, Route: GAVAGE, Dose: 0, 2, 4, 10 MG/WK FOR A TOTAL DOSE OF 0.5, 0.5, 0.9 MMOL (STUDY DURATION: 70 WK), Dose: 0, 2, 4, 10 MG/WK FOR A TOTAL DOSE OF 0.5, 0.5, 0.9 MMOL (STUDY DURATION: 70 WK), Tumor Site: Type of Lesion: ESOPHAGUS: TUMOR): active; positive

CC1(C)S[C@@H]2[C@H](NC(=O)[C@H](N)c3ccccc3)C(=O)N2[C@H]1C(=O)O
carcinogen call (Species: MOUSE, Strain/Sex: B6C3F1/FEMALE, Route: GAVAGE, Dose: 0, 1500, 3000 MG/KG IN CORN OIL 5 D/WK FOR 103-104 WK (STUDY DURATION: 106 WK), Dose: 0, 1500, 3000 MG/KG IN CORN OIL 5 D/WK FOR 103-104 WK (STUDY DURATION: 106 WK)): inactive; negative | carcinogen call (Species: MOUSE, Strain/Sex: B6C3F1/FEMALE, Route: GAVAGE, Dose: 0, 1500, 3000 MG/KG IN CORN OIL 5 D/WK FOR 103 WK, Dose: 0, 1500, 3000 MG/KG IN CORN OIL 5 D/WK FOR 103 WK): inactive; negative | carcinogen call (Species: MOUSE, Strain/Sex: B6C3F1/MALE, Route: GAVAGE, Dose: 0, 1500, 3000 MG/KG IN CORN OIL 5 D/WK FOR 103-104 WK (STUDY DURATION: 106 WK), Dose: 0, 1500, 3000 MG/KG IN CORN OIL 5 D/WK FOR 103-104 WK (STUDY DURATION: 106 WK)): inactive; negative | carcinogen call (Species: MOUSE, Strain/Sex: B6C3F1/MALE, Route: GAVAGE, Dose: 0, 1500, 3000 MG/KG IN CORN OIL 5 D/WK FOR 103 WK, Dose: 0, 1500, 3000 MG/KG IN CORN OIL 5 D/WK FOR 103 WK): inactive; negative | carcinogen call (Species: RAT, Strain/Sex: F344/FEMALE, Route: GAVAGE, Dose: 0, 750, 1500 MG/KG IN CORN OIL 5 D/WK FOR 103-104 WK (STUDY DURATION: 106 WK), Dose: 0, 750, 1500 MG/KG IN CORN OIL 5 D/WK FOR 103-104 WK (STUDY DURATION: 106 WK)): inactive; negative | carcinogen call (Species: RAT, Strain/Sex: F344/FEMALE, Route: GAVAGE, Dose: 0, 750, 1500 MG/KG IN CORN OIL 5 D/WK FOR 103 WK, Dose: 0, 750, 1500 MG/KG IN CORN OIL 5 D/WK FOR 103 WK): inactive; negative | carcinogen call (Species: RAT, Strain/Sex: F344/MALE, Route: GAVAGE, Dose: 0, 750, 1500 MG/KG IN CORN OIL 5 D/WK FOR 103 WK (STUDY DURATION: 105 WK), Dose: 0, 750, 1500 MG/KG IN CORN OIL 5 D/WK FOR 103 WK (STUDY DURATION: 105 WK), Tumor Site: Type of Lesion: ADRENAL MEDULLA: PHEOCHROMOCYTOMAS, HEMATOPOIETIC SYSTEM: MONONUCLEAR CELL LEUKEMIA): equivocal

CCCN(CCC)C(=O)SCC
carcinogen call (Species: Mouse, Strain/Sex: Crl:CD-1/Female (60/Group), Route: Oral, Dose: 0, 200, 600, 1800 ppm in diet for 73 wks, study duration 73 wks, Dose: 0, 200, 600, 1800 ppm in diet for 73 wks, study duration 73 wks): inactive; negative | carcinogen call (Species: Mouse, Strain/Sex: Crl:CD-1/Male (60/Group), Route: Oral, Dose: 0, 200, 600, 1800 ppm in diet for 73 wks, study duration 73 wks, Dose: 0, 200, 600, 1800 ppm in diet for 73 wks, study duration 73 wks): inactive; negative | carcinogen call (Species: Rat, Strain/Sex: Crl:CD (SD) BR/Female (90/Group), Route: Oral, Dose: 0, 9, 18, 36, 72 mg/kg/day in diet for 2 yr, study duration 2 yr, Dose: 0, 9, 18, 36, 72 mg/kg/day in diet for 2 yr, study duration 2 yr): inactive; negative | carcinogen call (Species: Rat, Strain/Sex: Crl:CD (SD) BR/Male (90/Group), Route: Oral, Dose: 0, 9, 18, 36, 72 mg/kg/day in diet for 2 yr, study duration 2 yr, Dose: 0, 9, 18, 36, 72 mg/kg/day in diet for 2 yr, study duration 2 yr): inactive; negative

Source: PubChem BioAssay AID1259411 (Chemical Carcinogenesis Research Information System (CCRIS), 2018)
